Values of other authors, collected in patent US20220370561A1, “LITHIUM AS A MONOTHERAPY AND/OR STEM CELL ADJUVANT THERAPY FOR PULMONARY FIBROSIS” (Therapeutic Solutions International, Inc., priority 2021, published 2022).
Where two headings read alike, the source gives them in different places.

Columns and labels:
[1] = tested on: telomere length
[2] = danazol orally 800 mg per day
[3] = tested on: mesenchymal stem cells; conditions: culture of cells with valproic acid
[4] = tested on: p16/p21 pathway; conditions: in vitro pre-mature senescence model
[5] = 12 months, exploratory analysis

For C#C[C@]1(O)CC[C@H]2[C@@H]3CCC4=Cc5oncc5C[C@]4(C)[C@H]3CC[C@@]21C [danazol], which “mean increase in telomere length” value ([1]; 6 months, exploratory analysis) is on record?
The value was 175 bp.

And the “patients with increase in telomere length” value ([1]; 6 months, exploratory analysis)?
The value was 16 of 21.

What about the “mean increase in telomere length” value [1, 5] of the same compound?
The value was 360 bp.

And the “patients with increase in telomere length” value [1, 5]?
The value was 16 of 18.

And the “mean increase in telomere length” value ([1]; 24 months compared with baseline)?
Its value is 386 bp.

And the “patients with a gain in telomere length compared with baseline” value ([1]; 24 months, 11 of 12)?
The value was 92%.

And the “telomere attrition in patients evaluable for the primary end point” value ([1]; danazol orally 800 mg per day, 24 months)?
Its value is “reduced in all 12 patients”.

And the “patients meeting the primary efficacy end point (20% reduction in annual rate of telomere attrition), intention-to-treat” value ([1]; danazol orally 800 mg per day, 24 months, 12 of 27 patients)?
Its value is 44%.

And the “elevated liver-enzyme levels of grade 2 or less, patients” value [2]?
Its value is 41%.

What about the “muscle cramps of grade 2 or less, patients” value [2] of the same compound?
Its value is 33%.

And the hematologic responses (3 months, 19 of 24 evaluable patients)?
Its hematologic responses is 79%.

What about the hematologic responses (24 months, 10 of 12 evaluable patients) of the same compound?
Its hematologic responses is 83%.

With CCCC(CCC)C(=O)O [valproic acid] as the compound, how does the “immune regulatory and metabolic properties of mesenchymal stem cells” value [3] read?
The value was “enhanced”.

And the “G2/M phase blockage derived from the senescence stress” value [4]?
The value was “inhibited the G2/M phase blockage”.

And the cell proliferation [4]?
Its cell proliferation is “increased cell proliferation”.

And the apoptosis ([4]; through suppression of the p16/p21 pathway)?
The apoptosis was “inhibited apoptosis”.
